Data set [1] relates to human PRP (Platelet Rich Plasma), platelet aggregation induced by ADP. The experiment in a line: In vitro platelet antiaggregation activity (Born method, ADP-induced). Type of data set: cell-based. The conditions noted are these: Platelet, ADP 10^-3 mM. The protocol:
The method described by Born (Nature, 194, 927, 1962) was followed for this test, based on the increase in the platelet aggregation induced by ADP. The experiment was conducted using a human PRP (Platelet Rich Plasma) pool from four healthy volunteers who had not taken any drugs for ten days. The PRP was adjusted to 280,000±20,000 and kept at ambient temperature for the entire duration of the test.
400 μl of PRP and 100 μl of MRAP2 dissolved in a physiological solution and adjusted to a pH of 7.4 were placed in plastic test tubes. Three doses of the drug in question (0.181, 0.904 and 1.818 mg/ml) were used.
Three dilutions of aspirin were prepared under the same conditions for use as a comparison drug. Two minutes after contact between the drug and PRP, the test tube was inserted into the aggregometer cell (EEI, Model 169 with Corning Recorder Mod.840). After 60 seconds, ADP (10^-3 mM) was added and the aggregation was recorded. In calculating the antiaggregation activity, reference was made to the maximum amplitude of the aggregation curved obtained with ADP. Assuming this amplitude to be 100, the amplitudes of the curves obtained with the various doses of MRAP2 and aspirin were calculated as a percentage.

The next data set concerns platelet aggregation. The experiment in a line: In vivo platelet antiaggregation activity. As to conditions: rats, single oral dose 3 mg/kg. Details: species or system male rats, Wistar strain. The method, then:
This experiment was carried out on male rats of the Wistar strain having a weight of 320±20 grams. Both the MRAP2 and the aspirin (used as a comparison drug) were dissolved in a physiological solution, and the solutions, adjusted to pH 7.4, were administered orally in doeses of 3 mg/kg to two groups of three rats each. […] The concentration of the solution was adjusted to contain 100 mg of MRAP2 per ml. Blood samples were drawn from each animal 72 and 120 hours after treatment, for checking the platelet aggregation. In calculating the activity, the previous method was used (the average of the three maximum amplitudes of the curves obtained with the untreated rats was given the control figure of 100%).

In the next data set the test system is stomach (gastric lesion). Nature of the data set: Ulcerogenic activity in rats after a single administration. Type of data set: in vivo, male albino rats, Wistar strain. As to conditions: rat, in vivo, po. The method, then: The ulcerogenic activity of MRAP2 was tested both after a single administration of the drug, and after prolonged administration.
In these tests, a total of 70 male albino rats of Wistar strain were used, having a weight of 200±20 grams.
The MRAP2 was administered diluted in tap water.
40 rats, fasted for 18 hours before the experiment, were divided into four batches of ten animals and treated orally as follows:
3rd group: MRAP2 (50 mg/kg)
4th group: MRAP2 (125 mg/kg).
The animals were killed after six hours. The stomach was withdrawn and the gastric lesion index was evaluated in terms of an arbitrary scale of values lying between 0. and 7 based on previous models proposed by other authors.
Furthermore, the treatment was randomised in order to eliminate any possible polarisation of the data.
The points given for gastric ulcerative lesions were as follows:
(1) hyperaemia or slight capillary obstruction; or slight loss of the epithelium; or some petechiae even with pale mucosa without hyperaemia;
(2) diffuse capillary obstructions or numerous petechiae; or diffuse loss of the epithelium; of a few surface lesions;
(3) strong submucosa haemorrhage; or many petechiae and small surface lesions; or much anaemic mucosa (yellowish colour); or up to three small ulcers;
(4) general pattern as in the previous numbers, plus up to ten small ulcers; or long erosions; or up to three medium sized ulcers;
(5) pattern as in number 4, with up to 15 small ulcers; or up to 6 large ulcers;
(6) pattern as previously, with up to ten large ulcers, plus small ulcers;
(7) pattern as previously, plus up to ten large ulcers and small ulcers; cases of perforated ulcers.

The values below come from patent US4221805A, “Method of inducing platelet antiaggregation activity” (priority 1978, dated 1980).

`CC(=O)Oc1ccccc1C(=O)O` [aspirin, reference compound] showed an inhibition of platelet aggregation at 181 µg/mL in data set [1] (drug 0.181 mg/ml) of 5%. The activity at 181 µg/mL in data set [1] (drug 0.181 mg/ml, serum + ADP = 100) was 95%. The inhibition of platelet aggregation at 904 µg/mL in data set [1] (drug 0.904 mg/ml) is 63%. Further, in data set [1] (drug 0.904 mg/ml, serum + ADP = 100), the activity at 904 µg/mL is 37%. In data set [1] (drug 1.818 mg/ml), this compound displayed an inhibition of platelet aggregation at 1818 µg/mL of 74%. Moreover, the activity at 1818 µg/mL in data set [1] (drug 1.818 mg/ml, serum + ADP = 100) amounted to 26%. Moreover, the “% platelet antiaggregation activity on day 3” value with platelet aggregation (day 3 (72 hours)) stood at 25%. In addition, in the data set on platelet aggregation (day 3 (72 hours), controls = 100), the “% platelet aggregation on day 3” value amounted to 75%. Moreover, the “% platelet antiaggregation activity on day 5” value in the data set on platelet aggregation (day 5 (120 hours)) is on record as 25%. In the data set on platelet aggregation (day 5 (120 hours), controls = 100), the “% platelet aggregation on day 5” value was 75%.

For `CCCCC1C(=O)N(c2ccccc2)N(c2ccccc2)C1=O` [phenylbutazone, reference compound], the “incidence of ulcerative lesions (in words)” value with stomach (gastric lesion) is “very marked”.
